The supplement of paper PMC10883282

Columns and labels:
Assay in all cases: relative viability vs DMSO control (72 h) (fraction); higher = more viable cells
[1] = system: G401
Summary of the method: (§1)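 ATPLite readings, expressed as percent growth and averaged over up to triplicate wells, provided relative viability. Before reading, sarcoma cell lines seeded in 384-well plates to reach 80–90% confluence received 2.5 µl of serially diluted compound after 24 h, from source plates of 10 mM to 0.0002 mM. Plates were held 72 h at 37 °C, 5% CO2, with 0.1% DMSO as vehicle and a 5 µM positive control. The data were rescaled to 1 for full and 0 for none.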

[2] = system: KHOS-240S
Summary of the method: as §1

[3] = system: SW684
Summary of the method: as §1

[4] = system: SK-LMS-1
Summary of the method: as §1

[5] = system: SW872
Summary of the method: as §1

[6] = system: SW1353
Summary of the method: as §1

[7] = system: SYO-1
Summary of the method: as §1

[8] = system: HS729
Summary of the method: as §1

[9] = system: A204
Summary of the method: as §1

[10] = system: SK-ES-1
Summary of the method: as §1

[11] = system: SW982
Summary of the method: as §1

[12] = system: MES-SA
Summary of the method: as §1

CC[C@@H]1CN(C(=O)NCC(F)(F)F)C[C@@H]1c1cnc2cnc3[nH]ccc3n12 [Upadacitinib]
Conditions | relative viability
[1], 0.00017 µM | 1.03
[1], 0.00051 µM | 1.04
[1], 0.00152 µM | 1
[1], 0.00457 µM | 1.04
[1], 0.01372 µM | 1.02
[1], 0.04115 µM | 0.987
[1], 0.1235 µM | 1.01
[1], 0.3704 µM | 0.977
[1], 1.111 µM | 0.953
[1], 3.333 µM | 0.904
[1], 10 µM | 0.842
[2], 0.00017 µM | 1.09
[2], 0.00051 µM | 1.06
[2], 0.00152 µM | 1.09
[2], 0.00457 µM | 1.1
[2], 0.01372 µM | 1.08
[2], 0.04115 µM | 1.09
[2], 0.1235 µM | 1.06
[2], 0.3704 µM | 1.04
[2], 1.111 µM | 0.982
[2], 3.333 µM | 0.919
[2], 10 µM | 0.708
[3], 0.00017 µM | 1.1
[3], 0.00051 µM | 1.19
[3], 0.00152 µM | 1.18
[3], 0.00457 µM | 1.18
[3], 0.01372 µM | 1.17
[3], 0.04115 µM | 1.16
[3], 0.1235 µM | 1.18
[3], 0.3704 µM | 1.13
[3], 1.111 µM | 1.17
[3], 3.333 µM | 1.11
[3], 10 µM | 1.03
[4], 0.00017 µM | 1.06
[4], 0.00051 µM | 1.05
[4], 0.00152 µM | 1.07
[4], 0.00457 µM | 1.07
[4], 0.01372 µM | 1.09
[4], 0.04115 µM | 1.08
[4], 0.1235 µM | 1.056
[4], 0.3704 µM | 1.05
[4], 1.111 µM | 1.02
[4], 3.333 µM | 0.979
[4], 10 µM | 0.772
[5], 0.00017 µM | 1.07
[5], 0.00051 µM | 1.07
[5], 0.00152 µM | 1.07
[5], 0.00457 µM | 1.03
[5], 0.01372 µM | 1.03
[5], 0.04115 µM | 1.01
[5], 0.1235 µM | 1.01
[5], 0.3704 µM | 0.963
[5], 1.111 µM | 1
[5], 3.333 µM | 0.97
[5], 10 µM | 0.85
[6], 0.00017 µM | 1.04
[6], 0.00051 µM | 1.04
[6], 0.00152 µM | 1.02
[6], 0.00457 µM | 1.04
[6], 0.01372 µM | 0.997
[6], 0.04115 µM | 1.01
[6], 0.1235 µM | 1.001
[6], 0.3704 µM | 0.942
[6], 1.111 µM | 0.937
[6], 3.333 µM | 0.84
[6], 10 µM | 0.686
[7], 0.00017 µM | 1.04
[7], 0.00051 µM | 1
[7], 0.00152 µM | 0.988
[7], 0.00457 µM | 0.978
[7], 0.01372 µM | 0.958
[7], 0.04115 µM | 0.934
[7], 0.1235 µM | 0.927
[7], 0.3704 µM | 0.894
[7], 1.111 µM | 0.826
[7], 3.333 µM | 0.764
[7], 10 µM | 0.592
[8], 0.00017 µM | 1.02
[8], 0.00051 µM | 0.954
[8], 0.00152 µM | 0.973
[8], 0.00457 µM | 0.97
[8], 0.01372 µM | 0.931
[8], 0.04115 µM | 0.946
[8], 0.1235 µM | 0.895
[8], 0.3704 µM | 0.837
[8], 1.111 µM | 0.834
[8], 3.333 µM | 0.805
[8], 10 µM | 0.761
[9], 0.00017 µM | 1.05
[9], 0.00051 µM | 1.1
[9], 0.00152 µM | 1.1
[9], 0.00457 µM | 1.07
[9], 0.01372 µM | 1.05
[9], 0.04115 µM | 1.05
[9], 0.1235 µM | 1.07
[9], 0.3704 µM | 1.03
[9], 1.111 µM | 1.03
[9], 3.333 µM | 0.945
[9], 10 µM | 0.832
[10], 0.00017 µM | 1.02
[10], 0.00051 µM | 1.01
[10], 0.00152 µM | 1.05
[10], 0.00457 µM | 1.02
[10], 0.01372 µM | 1.02
[10], 0.04115 µM | 1
[10], 0.1235 µM | 1.058
[10], 0.3704 µM | 1.01
[10], 1.111 µM | 0.982
[10], 3.333 µM | 0.986
[10], 10 µM | 0.907
[11], 0.00017 µM | 1.01
[11], 0.00051 µM | 1.022
[11], 0.00152 µM | 1.05
[11], 0.00457 µM | 1.05
[11], 0.01372 µM | 1.052
[11], 0.04115 µM | 1.04
[11], 0.1235 µM | 1.06
[11], 0.3704 µM | 1.043
[11], 1.111 µM | 1
[11], 3.333 µM | 0.969
[11], 10 µM | 0.779
[12], 0.00017 µM | 0.941
[12], 0.00051 µM | 0.949
[12], 0.00152 µM | 0.947
[12], 0.00457 µM | 0.939
[12], 0.01372 µM | 0.932
[12], 0.04115 µM | 0.92
[12], 0.1235 µM | 0.923
[12], 0.3704 µM | 0.936
[12], 1.111 µM | 0.885
[12], 3.333 µM | 0.873
[12], 10 µM | 0.812

Clc1ccc(Nc2nnc(Cc3ccncc3)c3ccccc23)cc1 [Vatalanib]
Conditions | relative viability
[1], 0.00017 µM | 0.965
[1], 0.00051 µM | 0.975
[1], 0.00152 µM | 0.954
[1], 0.00457 µM | 0.973
[1], 0.01372 µM | 0.979
[1], 0.04115 µM | 1
[1], 0.1235 µM | 0.947
[1], 0.3704 µM | 0.985
[1], 1.111 µM | 0.933
[1], 3.333 µM | 0.876
[1], 10 µM | 0.7239
[2], 0.00017 µM | 1.03
[2], 0.00051 µM | 1.06
[2], 0.00152 µM | 1.05
[2], 0.00457 µM | 1.04
[2], 0.01372 µM | 1.04
[2], 0.04115 µM | 1.01
[2], 0.1235 µM | 1.04
[2], 0.3704 µM | 1.03
[2], 1.111 µM | 0.986
[2], 3.333 µM | 1.01
[2], 10 µM | 1
[3], 0.00017 µM | 1.13
[3], 0.00051 µM | 1.0999
[3], 0.00152 µM | 1.09
[3], 0.00457 µM | 1.11
[3], 0.01372 µM | 1.11
[3], 0.04115 µM | 1.1
[3], 0.1235 µM | 1.08
[3], 0.3704 µM | 1.12
[3], 1.111 µM | 1.09
[3], 3.333 µM | 1.03
[3], 10 µM | 1.03
[4], 0.00017 µM | 1.03
[4], 0.00051 µM | 1.02
[4], 0.00152 µM | 0.992
[4], 0.00457 µM | 1
[4], 0.01372 µM | 1.026
[4], 0.04115 µM | 1
[4], 0.1235 µM | 1.016
[4], 0.3704 µM | 0.9565
[4], 1.111 µM | 0.967
[4], 3.333 µM | 0.938
[4], 10 µM | 0.858
[5], 0.00017 µM | 1.01
[5], 0.00051 µM | 1.01
[5], 0.00152 µM | 1.02
[5], 0.00457 µM | 1.026
[5], 0.01372 µM | 0.9937
[5], 0.04115 µM | 1.02
[5], 0.1235 µM | 1.022
[5], 0.3704 µM | 1.021
[5], 1.111 µM | 1.02
[5], 3.333 µM | 1.03
[5], 10 µM | 0.971
[6], 0.00017 µM | 0.9762
[6], 0.00051 µM | 0.9786
[6], 0.00152 µM | 0.939
[6], 0.00457 µM | 0.962
[6], 0.01372 µM | 0.935
[6], 0.04115 µM | 0.9589
[6], 0.1235 µM | 0.966
[6], 0.3704 µM | 0.978
[6], 1.111 µM | 0.93
[6], 3.333 µM | 0.934
[6], 10 µM | 0.881
[7], 0.00017 µM | 0.921
[7], 0.00051 µM | 0.915
[7], 0.00152 µM | 0.937
[7], 0.00457 µM | 0.926
[7], 0.01372 µM | 0.929
[7], 0.04115 µM | 0.929
[7], 0.1235 µM | 0.906
[7], 0.3704 µM | 0.882
[7], 1.111 µM | 0.807
[7], 3.333 µM | 0.735
[7], 10 µM | 0.651
[8], 0.00017 µM | 0.874
[8], 0.00051 µM | 0.906
[8], 0.00152 µM | 0.915
[8], 0.00457 µM | 0.88
[8], 0.01372 µM | 0.916
[8], 0.04115 µM | 0.896
[8], 0.1235 µM | 0.864
[8], 0.3704 µM | 0.871
[8], 1.111 µM | 0.832
[8], 3.333 µM | 0.898
[8], 10 µM | 0.934
[9], 0.00017 µM | 1.05
[9], 0.00051 µM | 1.09
[9], 0.00152 µM | 1.04
[9], 0.00457 µM | 1.03
[9], 0.01372 µM | 1.04
[9], 0.04115 µM | 1.02
[9], 0.1235 µM | 0.972
[9], 0.3704 µM | 0.904
[9], 1.111 µM | 0.7796
[9], 3.333 µM | 0.483
[9], 10 µM | 0.365
[10], 0.00017 µM | 0.978
[10], 0.00051 µM | 0.987
[10], 0.00152 µM | 0.968
[10], 0.00457 µM | 1.04
[10], 0.01372 µM | 1.03
[10], 0.04115 µM | 1.01
[10], 0.1235 µM | 0.995
[10], 0.3704 µM | 1.04
[10], 1.111 µM | 1.05
[10], 3.333 µM | 1.02
[10], 10 µM | 0.91
[11], 0.00017 µM | 1.03
[11], 0.00051 µM | 1.02
[11], 0.00152 µM | 1.04
[11], 0.00457 µM | 1.05
[11], 0.01372 µM | 1.06
[11], 0.04115 µM | 1.0899
[11], 0.1235 µM | 1.065
[11], 0.3704 µM | 1.04
[11], 1.111 µM | 1.03
[11], 3.333 µM | 1.053
[11], 10 µM | 1.03
[12], 0.00017 µM | 0.897
[12], 0.00051 µM | 0.905
[12], 0.00152 µM | 0.908
[12], 0.00457 µM | 0.902
[12], 0.01372 µM | 0.925
[12], 0.04115 µM | 0.92
[12], 0.1235 µM | 0.922
[12], 0.3704 µM | 0.938
[12], 1.111 µM | 0.937
[12], 3.333 µM | 0.919
[12], 10 µM | 0.854
